Assay results reported in patent US20120329815A1, “Famciclovir for the Treatment of Recurrent Herpes Labialis using a One-Day Treatment” (priority 2005, published 2012).

Key:
[1] = system: recurrent herpes labialis; details: 500 mg three times a day for five days; immunocompetent adult patients; cited from earlier work
[2] = Study 2403: safety and tolerability evaluation; format: in vivo, human; details: high-dose one-day treatment (750 mg b.i.d. or 1,500 mg q.d.), immunocompetent patients
Description: The assessment of safety is based mainly on the frequency of adverse events. Adverse events are summarized by presenting, for each treatment group, the number and percentage of patients having any adverse event, having an adverse event in each body system and having each individual adverse event. Any other information collected (e.g., severity or relatedness to study medication) will be listed as appropriate.
The safety and ITT populations include all randomized patients who are exposed to (take any) study medication. Using the above definitions, the safety and ITT populations comprise the same patients. For compatibility with the standard presentations, all safety summaries are referenced using the Safety population while appropriate efficacy summaries (for secondary parameters involving both vesicular and non-vesicular lesions) are referenced using the ITT population.

[3] = system: recurrent herpes labialis; assay: Study 2403: randomized, double-blind, placebo-controlled trial of patient-initiated one-day therapy, efficacy; format: in vivo, human; details: for Hazard ratio vs placebo, time to healing of all (non-aborted and aborted) lesions / Proportion of patients with aborted lesions / Time to healing of all (non-aborted and aborted) lesions (median): ITT; for Time to healing of all (non-aborted and aborted) lesions (median): aborted lesions assigned time zero
Description: This study design is a parallel-group, double-blind, double-dummy, randomized placebo-controlled trial of patient initiated therapy in adult immunocompetent patients with recurrent herpes labialis.
Adult immunocompetent patients with a history of recurrent herpes labialis and at least three episodes in the previous 12 months are selected. These patients have a history of prodromal symptoms preceding at least 50% of their herpes labialis episodes and a history of vesicular lesions occurring in at least 50% of those episodes.
After screening, a total of 900 eligible patients are randomly assigned to one of three treatment groups and are dispensed study medication. The overall assignment ratio is 1:1:1. Patients are instructed to initiate treatment within one hour of the first prodromal symptom without any clinical signs of a recurrent episode of herpes labialis.
Group 1, famciclovir 1500 mg daily (1500 mg po followed by placebo 12 hours later)
Group 2, famciclovir 1500 mg daily (750 mg po b.i.d.) or
Group 3, matching placebo capsules (po b.i.d.).
The criteria for evaluation include the primary efficacy variable and secondary efficacy variables. The primary efficacy variable is the investigator-assessed time to healing (re-epithelialization) of the non-aborted primary lesion complex, defined as the time from start of treatment until loss of crust (erythema may have been present). Secondary efficacy variables include time to healing of all non-aborted lesions (primary lesion complex and secondary lesions), time to healing of all lesions (non-aborted and aborted; latter assigned a time to healing of zero), and proportion of patients with aborted lesions.
Lesion healing for vesicular lesions is defined as loss of crust, although erythema may still be present. At each visit starting with Visit 2, the investigator makes assessments based on both the investigator examination of the current visit and patient diary entries since the previous visit. If healing is confirmed, the time of healing is defined as the earliest time it was reported and continuously maintained in the diary. This convention applies to the assessment of both the primary lesion complex and all vesicular lesions.
The Kaplan-Meier method is used to estimate the distribution of time to healing for each treatment group and the median time to healing. Estimated survival curves are plotted. The 95% confidence intervals for the median times to healing are constructed based on the first-order Taylor series approximation of their standard errors using the standard errors of the estimated survival functions. The 95% confidence intervals for between-treatment median differences are constructed using standard errors.
The overall distribution of the time to healing will be compared among treatment groups using the proportional hazards model, with treatment and center as the explanatory, variables. The Efron approximate likelihood method will be used for resolution of ties. Confidence intervals for the hazard ratios will be provided.
Variable 1, the primary efficacy variable, is the investigator-assessed time to healing of the primary lesion complex, defined as the time from start of treatment until loss of crust (for vesicular (classical) lesions progressing through the vesicle/ulcer stage only, erythema is allowed).
The primary efficacy variable, investigator-assessed time to healing of the primary lesion complex, is analyzed over the modified ITT population in two approaches: the primary estimation is based on the Kaplan-Meier method, and statistical testing is based on the proportional hazards model.
Secondary efficacy variables include variables 2-7. Variable 2 is the time to healing (lost of crust) of the primary lesion complex (non-vesicular lesions will be assigned a time of zero). Variable 3 is the time to healing (loss of crust) of all vesicular lesions (non-vesicular lesions will be assigned a time of zero). […]

herpes labialis = details: 2,000 mg twice a day for one day; immunocompetent adult patients; cited from earlier work
[4] = system: orolabial herpes infection; details: 200 mg or 400 mg five times a day for five days; cited from earlier work
[5] = 750 mg b.i.d. for one day, Modified ITT
[6] = 750 mg b.i.d. for one day, Per Protocol
[7] = 1500 mg q.d. single dose, Modified ITT
[8] = 1500 mg q.d. single dose, Per Protocol

Q: With `CC(=O)OCC(CCn1cnc2cnc(N)nc21)COC(C)=O` [Famciclovir, 9-(4-acetoxy-3-acetoxymethylbut-1-yl)-2-aminopurine] as the compound, how does the “Size of lesions as compared to placebo” value [1] read?
A: reduction of the size of lesions

Q: What about the “Time to healing as compared to placebo” value [1] of the same compound?
A: shorter time to healing

Q: What about the Safety and tolerability [2] of the same compound?
A: safe, well-tolerated

Q: And the Safety and tolerability ([2]; listed as FCV)?
A: well tolerated and as safe as placebo

Q: What about the “Hazard ratio vs placebo, time to healing of all (non-aborted and aborted) lesions” value ([3]; 750 mg b.i.d. for one day) of the same compound?
A: 1.39

Q: What about the “Proportion of patients with aborted lesions” value ([3]; 750 mg b.i.d. for one day) of the same compound?
A: 29%

Q: What about the “Time to healing of all (non-aborted and aborted) lesions (median)” value ([3]; 750 mg b.i.d. for one day) of the same compound?
A: 3.0 days

Q: And the “Hazard ratio vs placebo, time to healing of all non-aborted (primary and secondary) lesions” value [3, 5]?
A: 2.06

Q: And the “Hazard ratio vs placebo, time to healing of primary lesion complex” value (“Hazard ratio … of primary lesion complex” below) [3, 5]?
A: 2.05

Q: And the “Time to healing of all non-aborted (primary and secondary) lesions (median)” value [3, 5]?
A: 4.1 days

Q: What about the “Time to healing of primary lesion complex (median)” value [3, 5] of the same compound?
A: 4.0 days

Q: What about the “Hazard ratio … of primary lesion complex” value [3, 6] of the same compound?
A: 2.06

Q: What about the “Time to healing of primary lesion complex (median)” value [3, 6] of the same compound?
A: 4.0 days

Q: And the “Hazard ratio vs placebo, time to healing of all (non-aborted and aborted) lesions” value ([3]; 1500 mg q.d. single dose)?
A: 1.34

Q: And the “Proportion of patients with aborted lesions” value ([3]; 1500 mg q.d. single dose)?
A: 33%

Q: And the “Time to healing of all (non-aborted and aborted) lesions (median)” value ([3]; 1500 mg q.d. single dose)?
A: 2.9 days

Q: And the “Hazard ratio vs placebo, time to healing of all non-aborted (primary and secondary) lesions” value [3, 7]?
A: 1.71

Q: What about the “Hazard ratio … of primary lesion complex” value [3, 7] of the same compound?
A: 1.64

Q: And the “Time to healing of all non-aborted (primary and secondary) lesions (median)” value [3, 7]?
A: 4.5 days

Q: What about the “Time to healing of primary lesion complex (median)” value [3, 7] of the same compound?
A: 4.4 days

Q: What about the “Hazard ratio … of primary lesion complex” value [3, 8] of the same compound?
A: 1.71

Q: And the “Time to healing of primary lesion complex (median)” value [3, 8]?
A: 4.4 days

Q: For `CC(C)[C@H](N)C(=O)OCCOCn1cnc2c(=O)[nH]c(N)nc21` [Valacyclovir], which “Median time to healing of lesions as compared to placebo” value (herpes labialis) is on record?
A: reduced by approximately one day

Q: With `Nc1nc2c(ncn2COCCO)c(=O)[nH]1` [acyclovir] as the compound, how does the “Time to healing of vesicular lesions and pain” value [4] read?
A: significant but limited reduction
